The record followed here is paper PMC2950902 (Molecular Microbiology, 2010).

Assay [1] concerns the target T1, P1 ParA (Escherichia coli, UniProt P07620).
T1 sequence (P07620 1-398): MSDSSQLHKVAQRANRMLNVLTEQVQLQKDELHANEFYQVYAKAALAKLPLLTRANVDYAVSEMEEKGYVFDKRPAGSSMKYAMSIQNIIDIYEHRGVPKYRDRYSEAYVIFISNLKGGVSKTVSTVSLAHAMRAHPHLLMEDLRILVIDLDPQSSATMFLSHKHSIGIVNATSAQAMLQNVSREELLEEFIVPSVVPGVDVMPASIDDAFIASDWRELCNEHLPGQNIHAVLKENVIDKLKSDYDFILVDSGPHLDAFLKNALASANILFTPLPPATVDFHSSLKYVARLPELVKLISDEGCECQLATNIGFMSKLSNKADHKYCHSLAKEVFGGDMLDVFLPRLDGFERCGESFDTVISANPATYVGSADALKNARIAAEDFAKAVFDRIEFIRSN
Kind of assay: MANT-nucleotide fluorescence. The following applies: unlabelled ADP. In kind it is binding.

For assay [2], the target named is T1, P1 ParA. Kind of assay: tryptophan fluorescence change. In kind it is binding. To be noted: 1 mM nucleotide, Mg2+, 23°C.

For the molecule `Nc1ncnc2c1ncn2[C@@H]1O[C@H](COP(=O)(O)OP(=O)(O)O)[C@@H](O)[C@H]1O` [ADP], the “apparent Kd” value on P1 ParA [1] is recorded as “MANT-ADP bound ParA with similar affinity as ADP”. Turning to `Nc1ncnc2c1ncn2[C@@H]1O[C@H](COP(=O)(O)OP(=O)(O)OP(O)(O)=S)[C@@H](O)[C@H]1O` [ATPγS], the tryptophan fluorescence change entry on P1 ParA [2] is “ADP and ATPγS induced a small but reproducible increase in fluorescence”.
